Laboratory results reported in publication PMC11053983, “Beyond One-Size-Fits-All: Tailoring Teicoplanin Regimens for Normal Renal Function Patients Using Population Pharmacokinetics and Monte Carlo Simulation” (Pharmaceutics, 2024).

Tests used:
[1] = Single 200 mg IV infusion (30 min) PK in 12 healthy adults, noncompartmental analysis; type: in vivo, human; conditions: n = 12; for Cmax: plasma, HPLC-MS/MS
Description: (§1) A 200 mg dose of teicoplanin in 100 mL of normal saline was administered intravenously to subjects over 30 min. Venous blood samples (6 mL each) were collected into heparinized tubes at 33, 36, 45, and 90 min, and 4, 8, 48–120, and 168–240 h after starting the infusion. Eight sampling points were used per subject to analyze PK parameters via noncompartmental and population PK methods.
(§2) Plasma levels of teicoplanin were quantified using tandem mass spectrometry coupled with HPLC (HPLC-MS/MS). The analytical system utilized included an LC-40 HPLC unit from Shimadzu Co. (Kyoto, Japan) paired with a Gemini C18 analytical column from Phenomenex (Torrance, CA, USA). A SCIEX 4500 QTRAP mass spectrometer (Sciex, Redwood City, CA, USA) facilitated the MS-based detection. Calibration standards were prepared by combining 100 μL of a reference solution with 10 μL of a vancomycin internal standard (concentration of 100 μg/mL) in microcentrifuge tubes. To this mixture, 400 μL of acetonitrile was added to precipitate proteins, followed by vortex mixing for 60 s. Following centrifugation at 12,000 rpm for 2 min at 4 °C, the clear supernatant was diluted 10-fold with deionized water. A 10 μL sample of this solution was then introduced into the HPLC-MS/MS for analysis. In a parallel procedure for plasma samples, after the addition of the vancomycin internal standard and acetonitrile-induced protein precipitation, the sample was processed like that of the calibration standard preparation before HPLC-MS/MS analysis. The teicoplanin concentration in the plasma was determined by comparing the peak area ratio of teicoplanin to the internal standard and employed a batch-specific calibration curve equation, adjusted for 1/x^2 weighting.
A noncompartmental analysis (NCA) was completed to evaluate the plasma concentration–time profiles of teicoplanin using the R programming language and the NonCompart package. The following PK parameters were assessed: maximum observed plasma concentration (Cmax), time of last measurable concentration (Tlast), concentration corresponding to Tlast (Clast), area under the plasma concentration–time curve (AUC) from the start of dosing to the last quantifiable concentration (AUClast), AUC from the start of dosing to infinity (AUCinf), area under the first moment curve (AUMC) from 0 h to the Tlast (AUMClast), AUMC extrapolated to infinity, based on the last observed concentration (AUMCinf), mean residence time from 0 h to infinite (MRTinf), total body clearance as determined through NCA (CLNCA), volume of distribution (Vd) determined via NCA (VzNCA), steady-state Vd determined via NCA (VssNCA), and terminal elimination half-life (t1/2λz). Cmax, Tlast, and Clast were determined directly from the observed data. AUClast and AUMClast were calculated employing the linear-up and log-down trapezoidal method. AUCinf was estimated by adding Clast/λz to AUClast, where λz is the terminal elimination rate constant, which was determined by log-linear regression of the terminal phase plasma concentrations. AUMCinf was calculated using the following formula: AUMClast + (Tlast × Clast)/λz + Clast/λz^2, MRTinf as AUMCinf/AUCinf—infusion time/2, CLNCA as dose/AUCinf, VzNCA as CLNCA/λz, VssNCA as MRTinf × CLNCA, and t1/2λz as ln(2)/λz.

[2] = Population PK analysis (NONMEM, three-compartment model), 12 healthy adults, 200 mg IV; type: in vivo; conditions: for CL, total clearance / AUC (dose/CL) / VC, central volume of distribution / Vss, steady-state volume of distribution: individual parameters; for CL, total clearance: n = 12; for 1st t1/2 / 2nd t1/2 / 3rd t1/2: three-compartment model
Description: as §1, §2
The PK analysis of teicoplanin was completed using a nonlinear mixed-effects modeling technique with NONMEM software (version 7.5, ICON Clinical Research LLC, North Wales, PA, USA). Parameter estimation for both the observed and the unaccounted-for random effects was achieved by applying the First-Order Conditional Estimation with Interaction approach. This method facilitates the consideration of interactions between the unexplained interindividual variability (IIV) of PK parameters and the residual unexplained variability in the observed concentrations. To model the PK profiles of teicoplanin, we used one-compartment (ADVAN1 TRANS2), two-compartment (ADVAN3 TRANS4), and three-compartment (ADVAN11 TRANS4) models which were based on first-order kinetics, with the exception of zero-order infusion processes.
Model selection and evaluation were based on several criteria: NONMEM’s objective function values (OFVs), parameter estimate precision (reflected by relative standard errors), IIV shrinkage, diagnostic fit plots, visual predictive checks, and bootstrap analysis. For nested model comparisons, a decrease in OFV (ΔOFV) exceeding 3.84 (for a χ^2 distribution with one degree of freedom, df) or 5.99 (for a χ^2 distribution with two df) indicated meaningful improvements at a significance level of p < 0.05. The diagnostic plots for model assessment include conditional weighted residuals (CWRES) against time and population predictions (PRED), as well as actual observations compared with both PRED and individual predictions. Visual predictive checks (VPC) were conducted by matching the observed concentrations to the 80% prediction intervals from 1000 simulations based on the final PK model. The variability in the final predictions was determined by calculating the median and 95% confidence intervals for the PK parameters from 2000 bootstrap samples.
Significant covariates affecting PK parameters were determined using stepwise selection, with inclusion at p < 0.01 (ΔOFV < −6.635) and exclusion at p < 0.001 (ΔOFV > 10.83) for one df. Covariates had to show statistical and clinical relevance. […]

[3] = human, in vivo; cited from earlier work
From the text: Teicoplanin, along with the glycopeptide antibiotic vancomycin, has an important role in the treatment of Gram-positive bacterial infections, including those caused by methicillin-resistant Staphylococcus aureus (MRSA). […] Based on the European Medicines Agency’s summary of the product characteristics (SmPC) for teicoplanin, adults and the elderly with normal renal function have recommended specific do ...

[4] = cited from earlier work
From the text: In the present study, the PK profile of teicoplanin in healthy adults was characterized using a three-compartment model. Typically, in studies with sparse sampling designs, the PK profile of teicoplanin is often delineated using one- [15, 16] or two-compartment models; however, previous studies using dense sampling approaches have also applied a three-compartment model. Such models are characterized by three distinct slopes when plotted on a graph with the y-axis representing a logarithmic scale, corresponding to the composition of three exponential equations ...

[5] = 12 mg/kg every 12 h x4, then 12 mg/kg daily; median CLCR 113 mL/min; cited from earlier work
[6] = human, in vivo; cited from earlier work; remark: listed apart in the source
Description: In the second simulation, the PTA was determined for different LD and MD regimens to satisfy both criteria: a Ctrough greater than 20 mg/L and an AUC/MIC ratio of at least 800. Adopting a similar approach to the first simulation, we used two distinct LD and MD combinations. The proportion of patients achieving both therapeutic targets was continuously assessed from days 3 to 7 following the initiation of treatment.

[7] = in vivo; cited from earlier work
From the text: This study had several limitations. First, a small sample size of 12 subjects was insufficient to detect a variety of meaningful covariates, although eGFR and body weight were identified as significant factors. Thus, future studies with larger patient cohorts will be needed to develop more robust models. […] This decision, aimed at enhancing model stability and interpretability, involved employing the FOCE-I method and facing challenges with other estimation methods due to our ...

## teicoplanin
[1]; last 3 or 4 points, mean (CV%)
  t1/2λz, terminal elimination half-life: 54.6 (13.2%) h
[1]; mean (CV%)
  AUCinf: 307 (15.4%) mg/L·h
  AUClast: 273 (16.6%) mg/L·h
  AUMCinf: 22,700 (14.8%) mg/L·h^2
  AUMClast: 13,800 (16.0%) mg/L·h^2
  CLNCA: 0.0105 (15.2%) L/h/kg
  Clast: 0.431 (24.9%) mg/L
  MRTinf: 74.0 (12.8%) h
  VssNCA: 0.776 (19.6%) L/kg
  Cmax: 32.1 (12.9%) mg/L
[1]; median (IQR)
  AUCinf: 305 (279–332) mg/L·h
  AUClast: 270 (247–302) mg/L·h
  AUMCinf: 22,300 (20,200–23,200) mg/L·h^2
  AUMClast: 13,800 (12,300–15,000) mg/L·h^2
  CLNCA: 0.0103 (0.00896–0.0117) L/h/kg
  Clast: 0.422 (0.348–0.470) mg/L
  MRTinf: 76.7 (68.0–80.7) h
  Tlast: 192 (169–194) h
  VssNCA: 0.734 (0.661–0.859) L/kg
  t1/2λz, terminal elimination half-life: 55.0 (51.9–58.6) h
  Cmax: 30.9 (29.5–35.6) mg/L
[2]; 2000 bootstrap samples
  Q2, bootstrap median (95% CI): 4.45 (3.63–5.86) L/h
  Q3, bootstrap median (95% CI): 1.75 (1.44–2.13) L/h
  V1, bootstrap median (95% CI): 3.97 (3.15–4.62) L
  V2, bootstrap median (95% CI): 8.33 (7.07–9.85) L
  θ1 (CL), bootstrap median (95% CI): 0.693 (0.653–0.74) L/h
  θ2, bootstrap median (95% CI): 0.789 (0.422–1.16)
  θ7 (V3), bootstrap median (95% CI): 69.7 (55.8–82.6) L
  θ8, bootstrap median (95% CI): 1.73 (0.67–2.44)
[2]; final model estimate
  CL typical value θ1, CL = θ1 × (CE/105.27)^θ2, estimate: 0.693 L/h
  Q2 = θ4, intercompartmental clearance V1-V2, estimate: 4.45 L/h
  Q3 = θ6, intercompartmental clearance V1-V3, estimate: 1.76 L/h
  V1 = θ3, central volume of distribution, estimate: 3.96 L
  V2 = θ5, first peripheral volume, estimate: 8.24 L
  θ7, V3 = θ7 × (WT/67.85)^θ8, second peripheral volume, estimate: 69.8 L
  θ8, exponent of weight on V3, estimate: 1.73
[2]; healthy subjects
  VSS typical value (V1 + V2 + V3): 82.0 L
[2]; mean (CV%)
  CL, total clearance: 0.0107 (14.0%) L/h/kg
  AUC (dose/CL): 299 (16.0%) mg/L·h
  VC, central volume of distribution: 0.0644 (28.9%) L/kg
  Vss, steady-state volume of distribution: 1.21 (23.0%) L/kg
  1st t1/2: 0.345 (36.3%) h
  2nd t1/2: 4.12 (22.2%) h
  3rd t1/2: 103 (29.9%) h
[2]; median (IQR)
  CL, total clearance: 0.0104 (0.00961–0.0122) L/h/kg
  AUC (dose/CL): 300 (263–316) mg/L·h
  VC, central volume of distribution: 0.0649 (0.0526–0.0733) L/kg
  Vss, steady-state volume of distribution: 1.24 (1.06–1.34) L/kg
  1st t1/2: 0.317 (0.289–0.417) h
  2nd t1/2: 4.23 (3.78–4.83) h
  3rd t1/2: 97.9 (83.1–116) h
[3]
  elimination half-life: 83 to 182 h
[4]
  V1: 4.32 L
  V2: 8.35 L
  V3: 68.6 L
  VSS: 81.3 L
[4]; mean 64 years, 69.1 kg, CLCR 72 mL/min
  CL: 0.490 L/h
[5]
  steady-state Ctrough, median (range): 15.9 (8.8–29.9) mg/L
[6]
  patients achieving AUC ≥800 mg/L·h: 100%
[7]
  linear PK range: 2 to 25 mg/kg
